Series [1] concerns mice exposed to total body irradiation (TBI). Put plainly: Phase 2 efficacy: survival of mice dosed before total body irradiation (TBI) at LD100/30. Type of series: in vivo. The protocol:
Male mice were randomized and assessed in two phases: 1) for maximum tolerated doses (MTDs) of PrC-210, DzCH2SH, and 2Pip-2PrSH to determine dose levels for the efficacy study and 2) to evaluate the efficacy of the compounds when administered 60±5 minutes prior to exposure to total body irradiation (TBI) at an LD100/30 dose (990 cGy) (Tables 1 and 2).
For Phase 1 or 2, sterile water (vehicle), PrC-210, DzCH2SH, and 2Pip2PrSH were administered at 10 mL/kg calculated based on the most recent body weight via oral gavage. Animals were not fasted prior to administration of the compounds or vehicle. Mice in Phase 1 were administered the dose on Day 1 and mice in Phase 2 were administered the dose 60±5 minutes prior to TBI on Day 0.
Irradiation was administered once to the whole body. TBI of mice were performed using a 6 MV LINAC photon source (TrueBeam STx source). Animals were irradiated at a dose rate of up to 80 cGy/min to the midline of the animals. The source irradiated animals to 50% of the dose from anterior-posterior direction and […] from the posterior-anterior direction. Dose measurements were performed with a PTW 31010 0.1 cc Semiflex Ion chamber.
All surviving animals were observed once daily for clinical signs (e.g., unusually low or high activity, lethargy, shivering, appearance of fur, bloody and water stool, and other symptoms of moribundity) at 1-2 hours post-irradiation and/or post-dose and once daily on non-dosing days until Day 4 (Phase 1) or Day 30 (Phase 2).
In Phase 2 (Table 2), survival curves of mice treated with vehicle, PrC-210, DzCH2SH or 2Pip-PrSH prior to TBI with 9.9 Gy were measured (FIG. 1). […] Five mice were moribund sacrificed, and 6 mice were found dead. Survival in the Group 13 animals was 0% and median survival time was 8 days. In mice administered with PrC-210 before TBI (Group 14), 4 animals survived until scheduled sacrifice (Day 30) while 7 mice were moribund sacrificed. […] In mice administered with DzCH2SH before TBI (Group 15), 3 animals survived until scheduled sacrifice (Day 30) while 7 mice were moribund sacrificed, and one mouse was found dead. […] Five mice were moribund sacrificed and six mice were found dead. Survival in the Group 16 mice was 0% and median survival time was 10 days.

Series [2] deals with mice exposed to whole body irradiation. In words: Radiation LD50 in mice after whole body irradiation. The class given is in vivo. The note with it: oral gavage 60 minutes prior to whole body irradiation 2-12 Gy, 30 days. The protocol: The affect of the compounds according to the disclosure on the dose of radiation required to kill 50% of mice (LD50) is assessed.
Mice are assigned to three groups (Groups 1, 2 and 3). A control group, Group 1, is treated via oral gavage with vehicle (Lactated Ringer's and 5% dextrose, adjusted to pH 7.3 with sodium bicarbonate) 60 minutes prior to whole body irradiation (2 Gy). Group 2 is treated via oral gavage with PrC-210, as a positive control, dissolved in Lactated Ringer's at a dose of 200 mg/kg 60 minutes prior to whole body irradiaton (2 Gy). Group 3 is treated via oral gavage with compound 1 (PrC-210-PT) dissolved in Lactated Ringer's at a dose of 308 mg/kg 60 minutes prior to whole body irradiation (2 Gy). The mortality of the three groups is assessed for 30 days post irradiation.
The experiment is repeated using varying radiation doses of 4, 6, 8, 10 and 12 Gy. The LD50 for each group was determined.
The experiment is repeated to assess compounds 2-23 as radioprotectors.

The conditions of series [3]: cited from earlier work.
[4] abbreviates: 1000 mg/kg oral gavage before TBI 9.9 Gy.
Setting [5] is: after 1000 mg/kg oral gavage and TBI 9.9 Gy, 11 per group.
The mark [6] stands for this setting: of 11 mice, 1000 mg/kg oral gavage before TBI 9.9 Gy.

Structures are written as SMILES.

Take `CNCC(CS)CNC` [PrC-210, 3-(methylamino)-2-((methylamino)methyl)propane-1-thiol, reference compound]: in series [1] (setting [4]), the “survival compared to vehicle (Group 13) by Chi-square test” value was “statistically significantly higher” and the “survival compared to vehicle (Group 13) by Log-rank (Mantel-Cox) test” value was “statistically significantly higher”. In series [1] (Day 30, male mice, 1000 mg/kg oral gavage 60±5 min before TBI 9.9 Gy (LD100/30), 11 animals), this molecule came in with a Survival of 36.4%. In series [1] (after 1000 mg/kg oral gavage and TBI 9.9 Gy), the “mean body weight on Day 9 versus Groups 13, 15 and 16” value is given as “higher”. In series [1] (setting [5]), the “number of animals with eye discharge” value is on record as “one”, the “number of animals with hypoactivity” value was 5, the “number of animals with swollen eye” value is listed as “one” and the “number of mice with tremor” value is reported as 4. Besides, the “body weight gain on Days 5 to 9” value in series [1] (after 1000 mg/kg oral gavage and TBI 9.9 Gy, compared to the vehicle group (Group 13)) is “significantly higher”. The same molecule registered a median survival time in series [1] (male mice, 1000 mg/kg oral gavage 60±5 min before TBI 9.9 Gy (LD100/30)) of 11 days. In addition, in series [1] (setting [6]), the “number of animals survived until scheduled sacrifice (Day 30)” value was 4 and the “number of mice moribund sacrificed” value turned out to be 7. Moreover, in series [1] (treated prior to total body irradiation (LD100/30)), the “survival of animals through 30 days post exposure” value was “increased survival”. Moreover, in series [2], the “radiation LD50 versus control group” value is listed as “control group demonstrates a lower LD50 compared to the mice treated with”. For the same molecule, in series [3] (administered topically and orally in preclinical studies), the radioprotective properties result is on record as “demonstrated radioprotective properties”. The side effects result in series [3] (compared with Amifostine) is recorded as “less side effects than Amifostine”.

Source of the values: US20230174562A1, “RADIO-AND CHEMO-PROTECTIVE COMPOUNDS” (TONIX PHARMACEUTICALS, INC., priority 2020, published 2023).
